Results published in the C3SDB collision cross section collection.
“And” between values parts separate entries of the source, which are not always exact repeats. Identical values can stand only once.

Conditions: [M+H]+; instrument: DT; stepped-field

collision cross section (N2) [Å²] | SMILES
297.1 | CCCCC/C=C\C/C=C\CCCCCCCCCCCC(=O)O[C@H](COC(=O)CCCCCCC/C=C\CCCCCC)COP(=O)(O)OCCN [PE(38:3)]
290.1 | CCCCC/C=C\C/C=C\C/C=C\CCCCC(=O)O[C@H](COCCCCCCCCCCCCCCCCCC)COP(=O)(O)OCCN [PE(o36:3)]
299.8 | CCCC/C=C\CCCCCCCCCCCC(=O)O[C@H](COC(=O)CCCCCCCCCCCCCCCCCCC)COP(=O)(O)OCCN [PE(38:1)]
298.6 | CCCCCC/C=C\CCCCCCCC(=O)OC[C@H](COP(=O)(O)OCCN)OC(=O)CCCCCCCCC/C=C\CCCCCCCCCC [PE(38:2)]
283.6 | CCCCCCC/C=C\CCCCCCCC(=O)O[C@H](COC(=O)CCCCCCCCCCCC)COP(=O)([O-])OCC[N+](C)(C)C [PC(14:0/16:1)]
294 | CCCCC/C=C\C/C=C\C/C=C\CCCCC(=O)O[C@H](COCCCCCCCCCCCCCCCC)COP(=O)([O-])OCC[N+](C)(C)C [PC(o34:3)]
299.9 | CC/C=C\C/C=C\C/C=C\CCCCCCCC(=O)OC[C@H](COP(=O)([O-])OCC[N+](C)(C)C)OC(=O)CCCCCC/C=C\C/C=C\C/C=C\CCCCC [PC(38:6)]

Same assay, conditions: [M-H]-; instrument: DT; stepped-field

collision cross section (N2) | SMILES
270 Å² | CCCCC/C=C\C/C=C\C/C=C\C/C=C\CCCC(=O)O[C@H](COCCCCCCCCCCCCCCCC)COP(=O)(O)OCCN [PE(o36:4)]
274 Å² and 273.8 Å² and 274.3 Å² | CCCCC/C=C\C/C=C\CCCCCCCCCCCC(=O)O[C@H](COC(=O)CCCCCCCCCCC)COP(=O)(O)OC[C@@H](O)CO [PG(16:1/18:1)]
285.5 Å² | CCCCC/C=C\C/C=C\CCCCCCCCCCCC(=O)O[C@H](COC(=O)CCCCCCCCCCCCCC)COP(=O)(O)OC[C@@H](O)CO [PG(37:2)]
270.6 Å² | CCCC/C=C\CCCCCCCC(=O)OC[C@H](COP(=O)(O)OC[C@H](N)C(=O)O)OC(=O)CCCCCCC/C=C\CCCCCCCC [PS(16:1/16:1)]
296.4 Å² | CCCCC/C=C\C/C=C\C/C=C\CCCCC(=O)OC[C@H](COP(=O)(O)OC[C@H](N)C(=O)O)OC(=O)CCCCCCCCCCC/C=C\C/C=C\CCCCC [PS(40:5)]
296.3 Å² | CCCC/C=C\C/C=C\CCCCCCCC(=O)O[C@H](COC(=O)CCCCCCC/C=C\CCCCCCCCC)COP(=O)(O)O[C@H]1C(O)C(O)C(O)[C@@H](O)C1O (stereo not given in full) [PI(36:3)]
257 Å² | CCCCC/C=C\C/C=C\CCCCCCCCCCCC(=O)O[C@H](COC(=O)CCCCCCCCCCC)COP(=O)(O)O [PA(16:1/18:1)]
250 Å² | CCCCC/C=C\C/C=C\CCCCCCCCCC(=O)O[C@H](COC(=O)CCCCCCCCCCC)COP(=O)(O)O [PA(16:1/16:1)]
191.1 Å² | CCCCCC/C=C\CCCCCCCC(=O)OC[C@@H](O)COP(=O)(O)O [LPA(16:1)]
270.3 Å² | CCCCCCCCCCCCCCCCC(=O)O[C@H](COC(=O)CCCCCCCCCCCCCC)COP(=O)(O)OC[C@@H](O)CO [PG(32:0)]
280 Å² | CCCC/C=C\CCCCCCCC(=O)OC[C@H](COP(=O)(O)OC[C@@H](O)CO)OC(=O)CCCCCCCCCCC/C=C\C/C=C\CCCCC [PG(36:3)]
273.1 Å² | CCCCC/C=C\C/C=C\C/C=C\CCCCC(=O)O[C@H](COCCCCCCCCCCCCCCCCCC)COP(=O)(O)OCCN [PE(o36:3)]
299 Å² | CCCCC/C=C\C/C=C\CCCCCCCCCCCC(=O)O[C@H](COC(=O)CCCCCCC/C=C\CCCCCCCC)COP(=O)(O)OC[C@H](N)C(=O)O [PS(40:3)]
272.6 Å² | CCCCCCCCC/C=C\CCCCCCCC(=O)O[C@H](COC(=O)CCCCCCCCCCCC)COP(=O)(O)OC[C@H](N)C(=O)O [PS(16:0/16:1)]
278.8 Å² | CCCCCCCC/C=C\CCCCCCCC(=O)O[C@H](COC(=O)CCCCCCCCCCCCCCC)COP(=O)(O)OC[C@H](N)C(=O)O [PS(16:0/18:1)]
294.3 Å² | CCCCCC/C=C\CCCCCCCC(=O)OC[C@H](COP(=O)(O)OC[C@H](N)C(=O)O)OC(=O)CCCCCCCCC/C=C\CCCCCCCCCC [PS(38:2)]
301 Å² | CCCCC/C=C\C/C=C\CCCCCCCCCCCC(=O)O[C@H](COC(=O)CCCCCCCCCCCCCCCCC)COP(=O)(O)OC[C@H](N)C(=O)O [PS(40:2)]
297.5 Å² and 297.7 Å² | CCCCCCCCCC/C=C\CCCCCCCCCC(=O)O[C@H](COC(=O)CCCCCCCCCCCCC)COP(=O)(O)O[C@H]1C(O)C(O)C(O)[C@@H](O)C1O (stereo not given in full) [PI(18:0/18:1)]
233.4 Å² | CCCCCCCC/C=C\CCCCCCCC(=O)OC[C@@H](O)COP(=O)(O)O[C@H]1C(O)C(O)C(O)[C@@H](O)C1O (stereo not given in full) [LPI(18:1)]
277.8 Å² | CCCCC/C=C\C/C=C\C/C=C\C/C=C\C/C=C\CCC(=O)O[C@H](COCCCCCCCCCCCCCCCC)COP(=O)(O)OCCN [PE(o38:5)]
221.9 Å² | CCCCCCCCCCCCCCCCCC(=O)OC[C@@H](O)COP(=O)(O)OC[C@@H](O)CO [LPG(18:0)]
295.4 Å² | CCCCC/C=C\C/C=C\C/C=C\C/C=C\CCCCCC(=O)O[C@H](COC(=O)CCCCCCC/C=C\C/C=C\CCCCC)COP(=O)(O)OC[C@H](N)C(=O)O [PS(40:6)]
206.2 Å² | CCCCCCCCCCCCCCCCCC(=O)O[C@H](CO)COP(=O)(O)O [LPA(18:0)]

Conditions: [M+CH3COO]-; instrument: TW; calibrated with phosphatidylcholines (ESI+) and phosphatidylethanolamines (ESI-)

collision cross section (N2) [Å²] | SMILES
294 | CC/C=C\C/C=C\C/C=C\CCCCCCCC(=O)OC[C@H](COP(=O)([O-])OCC[N+](C)(C)C)OC(=O)CCCCCC/C=C\C/C=C\C/C=C\CCCCC [PC(38:6)]

Same assay, conditions: [M+H]+; instrument: TW; calibrated with phosphatidylcholines (ESI+) and phosphatidylethanolamines (ESI-)

collision cross section (N2) [Å²] | SMILES
230.8 | CCCCCCCC/C=C\CCCCCCCC(=O)OC[C@@H](O)COP(=O)([O-])OCC[N+](C)(C)C [LPC(18:1)]
281 | CCCCCCCCCCCCCCCCCCCC(=O)O[C@H](COC(=O)CCCCCCCCCCC)COP(=O)([O-])OCC[N+](C)(C)C [PC(32:0)]
286.8 | CC/C=C\C/C=C\C/C=C\CCCCCCCC(=O)OC[C@H](COP(=O)([O-])OCC[N+](C)(C)C)OC(=O)CCCCCC/C=C\C/C=C\C/C=C\CCCCC [PC(38:6)]

Same assay, conditions: [M+Na]+; instrument: TW; calibrated with phosphatidylcholines (ESI+) and phosphatidylethanolamines (ESI-)

collision cross section (N2) [Å²] | SMILES
291.1 | CCCC/C=C\C/C=C\CCCCCCCC(=O)O[C@H](COC(=O)CCCCCCC/C=C\CCCCCCCCC)COP(=O)(O)O[C@H]1C(O)C(O)C(O)[C@@H](O)C1O (stereo not given in full) [PI(36:3)]
277.3 | CCCCCCCCCCCCCCCCC(=O)O[C@H](COC(=O)CCCCCCCCCCCCCC)COP(=O)(O)OC[C@@H](O)CO [PG(32:0)]
282 | CCCC/C=C\CCCCCCCC(=O)OC[C@H](COP(=O)(O)OC[C@@H](O)CO)OC(=O)CCCCCCCCCCC/C=C\C/C=C\CCCCC [PG(36:3)]

Same assay, conditions: [M-H]-; instrument: TW; calibrated with phosphatidylcholines (ESI+) and phosphatidylethanolamines (ESI-)

collision cross section (N2) [Å²] | SMILES
285.6 | CCCCC/C=C\C/C=C\C/C=C\CCCCC(=O)OC[C@H](COP(=O)(O)OC[C@H](N)C(=O)O)OC(=O)CCCCCCCCCCC/C=C\C/C=C\CCCCC [PS(40:5)]
287.2 | CCCC/C=C\C/C=C\CCCCCCCC(=O)O[C@H](COC(=O)CCCCCCC/C=C\CCCCCCCCC)COP(=O)(O)O[C@H]1C(O)C(O)C(O)[C@@H](O)C1O (stereo not given in full) [PI(36:3)]
263.5 | CCCCCCCCCCCCCCCCC(=O)O[C@H](COC(=O)CCCCCCCCCCCCCC)COP(=O)(O)OC[C@@H](O)CO [PG(32:0)]
272.2 | CCCC/C=C\CCCCCCCC(=O)OC[C@H](COP(=O)(O)OC[C@@H](O)CO)OC(=O)CCCCCCCCCCC/C=C\C/C=C\CCCCC [PG(36:3)]
271.7 | CCCCC/C=C\C/C=C\CCCCCCCCCCCC(=O)O[C@H](COC(=O)CCCCCCC/C=C\CCCCCC)COP(=O)(O)OCCN [PE(38:3)]
274.1 | CCCCCC/C=C\CCCCCCCC(=O)OC[C@H](COP(=O)(O)OCCN)OC(=O)CCCCCCCCC/C=C\CCCCCCCCCC [PE(38:2)]
284.6 | CCCCC/C=C\C/C=C\C/C=C\C/C=C\CCCCCC(=O)O[C@H](COC(=O)CCCCCCC/C=C\C/C=C\CCCCC)COP(=O)(O)OC[C@H](N)C(=O)O [PS(40:6)]

Conditions: [M+H]+; instrument: DT; stepped-field
Remark: another data set of the same source

collision cross section (N2) | SMILES
235.59 Å² and 236.1 Å² | CCCCCCCC/C=C\CCCCCCCC(=O)OC[C@@H](O)COP(=O)([O-])OCC[N+](C)(C)C [LPC(18:1)]
